Source: patent US20240092784A1, “CONDENSED HETEROCYCLIC COMPOUND” (NISSAN CHEMICAL CORPORATION, priority 2020, published 2024)

Target: human SPR (Homo sapiens (Human), UniProt P35270)
Test: Evaluation Example 2: Measurement of human SPR inhibitory activity (seven concentrations, sepiapterin absorbance at 420 nm)
Assay type: biochemical
Conditions: Evaluation Example 2, seven concentrations 0.14 nM to 100 nM, 240 minutes at room temperature, read-out: IC50
In short: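 His-tagged full-length human SPR (1-261) was expressed in E. coli and the tag removed. Enzyme at 150 ng/mL in 100 mM Tris-HCl pH 7.5/0.01% BSA was mixed with compound (0.14–100 nM, seven points), 120 μM sepiapterin and 160 μM NADPH, both as added-solution concentrations. After 240 min at room temperature, remaining sepiapterin was read at 420 nm to give percent inhibition.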

human SPR, sequence (P35270 whole entry): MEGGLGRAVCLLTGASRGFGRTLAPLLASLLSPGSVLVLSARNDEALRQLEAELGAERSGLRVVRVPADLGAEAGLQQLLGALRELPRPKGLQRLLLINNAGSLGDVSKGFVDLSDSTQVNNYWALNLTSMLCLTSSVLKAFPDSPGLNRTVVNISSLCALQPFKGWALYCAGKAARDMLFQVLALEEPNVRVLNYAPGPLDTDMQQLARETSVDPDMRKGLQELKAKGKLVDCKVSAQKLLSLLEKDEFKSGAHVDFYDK

CC(C)Cn1c(=O)c(C(=O)NC2CC2)c(O)n2ncc(/C=C/C(=O)N3CCOCC3(C)C)c12 [compound 459, (E)-N-Cyclopropyl-3-(3-(3,3-dimethylmorpholino)-3-oxoprop-1-en-1-yl)-7-hydroxy-4-isobutyl-5-oxo-4,5-dihydropyrazolo[1,5-a]pyrimidine-6-carboxamide]
IC50: 0.74 nM

CC(C)Cn1c(=O)c(C(=O)NC2CC2)c(O)n2ncc(/C=C/C(=O)N3CCN(C4CC(F)(F)C4)CC3)c12 [compound 460, (E)-N-Cyclopropyl-3-(3-(4-(3,3-difluorocyclobutyl)piperazin-1-yl)-3-oxoprop-1-en-1-yl)-7-hydroxy-4-isobutyl-5-oxo-4,5-dihydropyrazolo[1,5-a]pyrimidine-6-carboxamide]
IC50: 1.24 nM

CC(C)Cn1c(=O)c(C(=O)NC2CC2)c(O)n2ncc(/C=C/C(=O)N3CCCOCC3)c12 [compound 461, (E)-3-(3-(1,4-Oxazepan-4-yl)-3-oxoprop-1-en-1-yl)-N-cyclopropyl-7-hydroxy-4-isobutyl-5-oxo-4,5-dihydropyrazolo[1,5-a]pyrimidine-6-carboxamide]
IC50: 0.75 nM

CC(C)Cn1c(=O)c(C(=O)NC2CC2)c(O)n2ncc(/C=C/C(=O)N3CCN(C(C)C)CC3)c12 [compound 462, (E)-N-Cyclopropyl-7-hydroxy-4-isobutyl-3-(3-(4-isopropylpiperazin-1-yl)-3-oxoprop-1-en-1-yl)-5-oxo-4,5-dihydropyrazolo[1,5-a]pyrimidine-6-carboxamide]
IC50: 0.96 nM

CC(C)Cn1c(=O)c(C(=O)NC2CC2)c(O)n2ncc(/C=C/C(=O)N3CCC(F)CC3)c12 [compound 463, (E)-N-Cyclopropyl-3-(3-(4-fluoropiperidin-1-yl)-3-oxoprop-1-en-1-yl)-7-hydroxy-4-isobutyl-5-oxo-4,5-dihydropyrazolo[1,5-a]pyrimidine-6-carboxamide]
IC50: 0.97 nM

CC(C)Cn1c(=O)c(C(=O)NC2CC2)c(O)n2ncc(/C=C/C(=O)N3CCC(F)(F)CC3)c12 [compound 464, (E)-N-Cyclopropyl-3-(3-(4,4-difluoropiperidin-1-yl)-3-oxoprop-1-en-1-yl)-7-hydroxy-4-isobutyl-5-oxo-4,5-dihydropyrazolo[1,5-a]pyrimidine-6-carboxamide]
IC50: 0.8 nM

CC(C)Cn1c(=O)c(C(=O)NC2CC2)c(O)n2ncc(/C=C/C(=O)N3CCC(OC(F)(F)F)CC3)c12 [compound 465, (E)-N-Cyclopropyl-7-hydroxy-4-isobutyl-5-oxo-3-(3-oxo-3-(4-(trifluoromethoxy)piperidin-1-yl)prop-1-en-1-yl)-4,5-dihydropyrazolo[1,5-a]pyrimidine-6-carboxamide]
IC50: 1.76 nM

CC(C)Cn1c(=O)c(C(=O)NC2CC2)c(O)n2ncc(/C=C/C(=O)N3CCC(C(F)F)CC3)c12 [compound 466, (E)-N-Cyclopropyl-3-(3-(4-(difluoromethyl)piperidin-1-yl)-3-oxoprop-1-en-1-yl)-7-hydroxy-4-isobutyl-5-oxo-4,5-dihydropyrazolo[1,5-a]pyrimidine-6-carboxamide]
IC50: 1.27 nM

CC(C)Cn1c(=O)c(C(=O)NC2CC2)c(O)n2ncc(/C=C/C(=O)N3CCC(C)(O)CC3)c12 [compound 467, (E)-N-Cyclopropyl-7-hydroxy-3-(3-(4-hydroxy-4-methylpiperidin-1-yl)-3-oxoprop-1-en-1-yl)-4-isobutyl-5-oxo-4,5-dihydropyrazolo[1,5-a]pyrimidine-6-carboxamide]
IC50: 0.79 nM

CC(C)Cn1c(=O)c(C(=O)NC2CC2)c(O)n2ncc(/C=C/C(=O)N3CCC(C#N)CC3)c12 [compound 468]
IC50: 0.84 nM

CC(C)Cn1c(=O)c(C(=O)NC2CC2)c(O)n2ncc(/C=C/C(=O)N3CCC(C(C)(F)F)CC3)c12 [compound 469]
IC50: 0.89 nM

COC1(C)CCN(C(=O)/C=C/c2cnn3c(O)c(C(=O)NC4CC4)c(=O)n(CC(C)C)c23)CC1 [compound 470]
IC50: 0.88 nM

CC(C)Cn1c(=O)c(C(=O)NC2CC2)c(O)n2ncc(/C=C/C(=O)N3CCN(C4CC4)CC3)c12 [compound 471, (E)-N-Cyclopropyl-3-(3-(4-cyclopropylpiperazin-1-yl)-3-oxoprop-1-en-1-yl)-7-hydroxy-4-isobutyl-5-oxo-4,5-dihydropyrazolo[1,5-a]pyrimidine-6-carboxamide]
IC50: 1.18 nM

CC(C)Cn1c(=O)c(C(=O)NC2CC2)c(O)n2ncc(/C=C/C(=O)N3CCN(C4CCC4)CC3)c12 [compound 472, (E)-3-(3-(4-Cyclobutylpiperazin-1-yl)-3-oxoprop-1-en-1-yl)-N-cyclopropyl-7-hydroxy-4-isobutyl-5-oxo-4,5-dihydropyrazolo[1,5-a]pyrimidine-6-carboxamide]
IC50: 1.12 nM

CC(C)Cn1c(=O)c(C(=O)NC2CC2)c(O)n2ncc(/C=C/C(=O)N3CCC(C(C)C)CC3)c12 [compound 473, (E)-N-Cyclopropyl-7-hydroxy-4-isobutyl-3-(3-(4-isopropylpiperidin-1-yl)-3-oxoprop-1-en-1-yl)-5-oxo-4,5-dihydropyrazolo[1,5-a]pyrimidine-6-carboxamide]
IC50: 2.11 nM

CC(C)Cn1c(=O)c(C(=O)NC2CC2)c(O)n2ncc(/C=C/C(=O)N3CCC(C(C)(C)O)CC3)c12 [compound 474, (E)-N-Cyclopropyl-7-hydroxy-3-(3-(4-(2-hydroxypropan-2-yl)piperidin-1-yl)-3-oxoprop-1-en-1-yl)-4-isobutyl-5-oxo-4,5-dihydropyrazolo[1,5-a]pyrimidine-6-carboxamide]
IC50: 0.88 nM

COCC1CCN(C(=O)/C=C/c2cnn3c(O)c(C(=O)NC4CC4)c(=O)n(CC(C)C)c23)CC1 [compound 475, (E)-N-Cyclopropyl-7-hydroxy-4-isobutyl-3-(3-(4-(methoxymethyl)piperidin-1-yl)-3-oxoprop-1-en-1-yl)-5-oxo-4,5-dihydropyrazolo[1,5-a]pyrimidine-6-carboxamide]
IC50: 0.85 nM

CC(C)Cn1c(=O)c(C(=O)NC2CC2)c(O)n2ncc(/C=C/C(=O)N3CCC(O)CC3)c12 [compound 476, (E)-N-Cyclopropyl-7-hydroxy-3-(3-(4-hydroxypiperidin-1-yl)-3-oxoprop-1-en-1-yl)-4-isobutyl-5-oxo-4,5-dihydropyrazolo[1,5-a]pyrimidine-6-carboxamide]
IC50: 0.75 nM

CC(C)Cn1c(=O)c(C(=O)NC2CC2)c(O)n2ncc(/C=C/C(=O)N3CCC(C(N)=O)CC3)c12 [compound 477, (E)-3-(3-(4-Carbamoylpiperidin-1-yl)-3-oxoprop-1-en-1-yl)-N-cyclopropyl-7-hydroxy-4-isobutyl-5-oxo-4,5-dihydropyrazolo[1,5-a]pyrimidine-6-carboxamide]
IC50: 0.64 nM

CC(C)Cn1c(=O)c(C(=O)NC2CC2)c(O)n2ncc(/C=C/C(=O)N3CCC(OC4CCOCC4)CC3)c12 [compound 478, (E)-N-Cyclopropyl-7-hydroxy-4-isobutyl-5-oxo-3-(3-oxo-3-(4-((tetrahydro-2H-pyran-4-yl)oxy)piperidin-1-yl)prop-1-en-1-yl)-4,5-dihydropyrazolo[1,5-a]pyrimidine-6-carboxamide]
IC50: 0.95 nM

CC(C)Cn1c(=O)c(C(=O)NC2CC2)c(O)n2ncc(/C=C/C(=O)N3CCC(C)(C)C3)c12 [compound 479, (E)-N-Cyclopropyl-3-(3-(3,3-dimethylpyrrolidin-1-yl)-3-oxoprop-1-en-1-yl)-7-hydroxy-4-isobutyl-5-oxo-4,5-dihydropyrazolo[1,5-a]pyrimidine-6-carboxamide]
IC50: 1.05 nM
